# Test results taken from ChEMBL document CHEMBL5321205, “Development and therapeutic potential of adaptor-associated kinase 1 inhibitors in human multifaceted diseases” (Eur J Med Chem, 2023).
# Experiments:
# [1] = Oral bioavailability in mouse at 10 mg/kg measured upto 24 hrs; assay type: ADME, organism-based; conditions: in vivo
# [2] = Half life in mouse at 10 mg/kg, po or 1 mg/kg, iv measured upto 24 hrs; assay type: ADME, organism-based; conditions: in vivo
# [3] = target: T1, AP2-associated protein kinase 1 (Homo sapiens, UniProt Q2M2I8); assay: Inhibition of AAK1 expressed in human […] cells; assay type: cell-based, HEK293F
# T1 sequence (Q2M2I8 whole entry): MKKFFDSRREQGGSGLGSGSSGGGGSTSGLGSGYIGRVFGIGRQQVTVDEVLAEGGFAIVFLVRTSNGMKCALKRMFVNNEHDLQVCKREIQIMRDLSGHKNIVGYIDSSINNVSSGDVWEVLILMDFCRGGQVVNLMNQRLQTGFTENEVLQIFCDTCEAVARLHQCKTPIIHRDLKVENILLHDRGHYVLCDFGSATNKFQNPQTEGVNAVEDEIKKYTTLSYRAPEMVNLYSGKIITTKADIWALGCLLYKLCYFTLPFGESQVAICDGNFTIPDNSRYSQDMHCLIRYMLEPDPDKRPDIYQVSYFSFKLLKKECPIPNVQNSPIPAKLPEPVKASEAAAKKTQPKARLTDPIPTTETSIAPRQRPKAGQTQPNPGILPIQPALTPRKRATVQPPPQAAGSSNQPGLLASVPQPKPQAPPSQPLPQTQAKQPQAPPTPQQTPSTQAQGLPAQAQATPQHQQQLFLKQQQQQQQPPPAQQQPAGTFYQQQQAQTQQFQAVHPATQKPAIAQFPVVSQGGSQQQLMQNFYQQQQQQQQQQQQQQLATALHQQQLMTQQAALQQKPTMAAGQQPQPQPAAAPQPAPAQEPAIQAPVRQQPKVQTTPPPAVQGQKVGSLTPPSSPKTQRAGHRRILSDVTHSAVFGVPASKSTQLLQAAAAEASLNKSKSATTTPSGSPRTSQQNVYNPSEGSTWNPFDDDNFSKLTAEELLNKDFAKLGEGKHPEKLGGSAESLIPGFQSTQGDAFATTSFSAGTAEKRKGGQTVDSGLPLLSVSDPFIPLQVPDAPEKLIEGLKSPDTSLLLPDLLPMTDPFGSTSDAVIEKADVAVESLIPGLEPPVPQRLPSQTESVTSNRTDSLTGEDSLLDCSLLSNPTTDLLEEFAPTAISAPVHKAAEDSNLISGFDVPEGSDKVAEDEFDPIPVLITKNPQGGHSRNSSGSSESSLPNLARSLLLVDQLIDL
# [4] = target: T1, AP2-associated protein kinase 1; assay: Binding affinity of AAK1 (unknown origin) assessed as dissociation constant
# [5] = target: T1, AP2-associated protein kinase 1; assay: Inhibition of AAK1 (unknown origin)
# [6] = target: T1, AP2-associated protein kinase 1; assay: Inhibition of GST-tagged recombinant AAK1 (unknown origin) using AP2M1 peptide as substrate by ADP-Glo kinase assay
# [7] = target: T1, AP2-associated protein kinase 1; assay: Inhibition of GST-Xa-tagged recombinant human AAK1 using (5-FAM)-Aha-KEEQSQITSQVTGQIGWR-NH2 as substrate assessed as reduction in AP2M1 phosphorylation incubated for 3 hrs in presence of ATP by fluorescence based assay
smiles,measurement,setting,value
COc1ncccc1-c1cnn2ccc(N3CCN(C(=O)OC(C)C)CC3)nc12,bioavailability,[1],100%
same,half-life,[2],3.6 h
CC(C)C[C@](C)(N)COc1ccc(-c2ccncc2)cc1C(F)(F)F,IC50,[3],2.9 nM
COc1ncccc1-c1cnc2ccc(N3CC[C@@H](N(C)C(=O)OC(C)C)C3)nn12,Kd,[4],1 nM
same,IC50,[5],< 10 nM
COC(=O)c1ccc2c(c1)NC(=O)C2C(Nc1ccc(N(C)C(=O)CN2CCN(C)CC2)cc1)c1ccccc1 (stereo unspecified),Kd,[4],1060 nM
COc1ncccc1-c1cnc2ccc(N3CC[C@@H](N(C)C(=O)OC(C)(C)C)C3)nn12,Kd,[4],1 nM
same,IC50,[5],< 10 nM
COC(=O)[C@@]1(O)C[C@@H]2O[C@]1(C)n1c3ccccc3c3c4c(c5c6ccccc6n2c5c31)C(=O)NC4,IC50,[6],< 10 nM
[3H]CC([3H])(C[3H])C([3H])[C@H](N)COc1ccc2c(c1)[nH]c(=O)c1cnccc12 (stereo partly specified),IC50,[7],2.8 nM
COC(=O)[C@@]1(O)[C@@H](C)[C@H]2O[C@]1(C)n1c3ccccc3c3c4c(c5c6ccccc6n2c5c31)C(=O)NC4,IC50,[6],< 30 nM
